Assay [1] deals with polyclonal antibody ab6982. Description: Epitope mapping of polyclonal antibody ab6982 against cyclic peptides of Ad5 fiber and hexon (peptide array). The assay is classed as binding, rabbits. The following applies: cyclic peptides of fiber protein (clusters 1-7).
Assay [2] concerns IgG from human donors (anti-AAV antibodies). Description: Screen for anti-AAV antibodies in human sera, 2452 linear 15-amino-acid AAV peptides on microarrays (Table 1). The assay is classed as binding. Further details: key to group I: X: the deduplicated aggregate of the respective top 10 peptide hits for each donor was compiled and designated as group I; key to group II: X: the deduplicated aggregate of the respective top 25 peptide hits for each donor was compiled and designated as group II; key to group III: X: the deduplicated aggregate of the respective top 50 peptide hits for each donor was compiled and designated as group III. The following applies: human donor IgG binding to linear 15-amino-acid AAV peptides on microarray, fluorescence; for group II: membership in deduplicated aggregate of top 25 peptide hits for each donor; for group III: membership in deduplicated aggregate of top 50 peptide hits for each donor; for group I: membership in deduplicated aggregate of top 10 peptide hits for each donor. In a few lines:
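Protein G-purified IgG from human donor blood incubated with microarrays of 2452 linear 15-mer peptides from 16 AAVs; binding read by fluorescence. Background-subtracted signals ranked per donor, with top 10, 25, 50 and 250 hits pooled and deduplicated into groups I-IV.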

Ends that are not written are not given here.

Take HSQSLDRMMNPLLD [SEQ ID NO: 2033]: the “antibody binding signal ranking from the microarray experiment” value (shortened to “antibody binding signal ranking”) in assay [1] was 062. Also, in assay [2], the “group II” value is “X” and the “group III” value is “X”.
As to IEMRAAPGGNAVDA [SEQ ID NO: 2052], the “antibody binding signal ranking” value in assay [1] is listed as 014. In addition, in assay [2], the “group II” value is reported as “X” and the “group III” value is reported as “X”.
As to “KGEPVNEADAAALE (REGION 1..14: note = peptide derived from viral capsid protein) [SEQ ID NO: 2003]”, in assay [1], the “antibody binding signal ranking” value is listed as 153. In assay [2], the “group II” value is “X” and the “group III” value is reported as “X”.
In the case of KKRILEPLGLVEEA [SEQ ID NO: 2023], the “antibody binding signal ranking” value in assay [1] is given as 023. Further, in assay [2], the “group II” value was “X” and the “group III” value is “X”.
In the case of KKRILEPLGLVEEG [SEQ ID NO: 2034], the “antibody binding signal ranking” value in assay [1] stood at 066. Also, in assay [2], the “group II” value is given as “X” and the “group III” value is listed as “X”.
In the case of “KNTPVPADPPTTFN (REGION 1..14: note = peptide derived from viral capsid protein) [SEQ ID NO: 2011]”, the “antibody binding signal ranking” value in assay [1] came to 076. For the same sequence, in assay [2], the “group II” value was “X” and the “group III” value is “X”.
Take KRLNFEEDTGAGDG [SEQ ID NO: 2053]: the “antibody binding signal ranking” value in assay [1] is 022. Moreover, in assay [2], the “group II” value was “X” and the “group III” value is listed as “X”.
For the sequence KRVLEPLGLVESPV [SEQ ID NO: 2012], the “antibody binding signal ranking” value in assay [1] came out at 085. For the same sequence, in assay [2], the “group II” value was “X” and the “group III” value is given as “X”.
Take KSNNVEFAVNTEGV [SEQ ID NO: 2016]: in assay [1], the “antibody binding signal ranking” value is on record as 009. Besides, in assay [2], the “group II” value was “X” and the “group III” value is listed as “X”.
As for KSTSVDFAVNTEGV [SEQ ID NO: 2025], the “antibody binding signal ranking” value in assay [1] was 039. For the same sequence, in assay [2], the “group II” value is “X” and the “group III” value is “X”.
Consider “LFNIQVKEVTTNDG (REGION 1..14: note = peptide derived from viral capsid protein) [SEQ ID NO: 2047]”, for which, in assay [1], the “antibody binding signal ranking” value worked out at 172. In addition, in assay [2], the “group II” value is “X” and the “group III” value is reported as “X”.
Take “LQRGNRQAATADVN (REGION 1..14: note = peptide derived from viral capsid protein) [SEQ ID NO: 2026]”: in assay [1], the “antibody binding signal ranking” value is 044. Besides, in assay [2], the “group II” value is listed as “X” and the “group III” value is “X”.
Take “LSKTANDNNNSNFP (REGION 1..14: note = peptide derived from viral capsid protein) [SEQ ID NO: 1988]”: the “antibody binding signal ranking” value in assay [1] turned out to be 001. Besides, in assay [2], the “group I” value was “X”, the “group II” value is reported as “X” and the “group III” value is recorded as “X”.
Take MASHKDDEEKFFPM [SEQ ID NO: 1989]: the “antibody binding signal ranking” value in assay [1] was 002. In assay [2], the “group I” value is listed as “X”, the “group II” value was “X” and the “group III” value was “X”.
As for MATNNQSLALGETT [SEQ ID NO: 2022], the “antibody binding signal ranking” value in assay [1] came out at 021. In addition, in assay [2], the “group II” value was “X” and the “group III” value is “X”.
Consider MNPGPAMASHKEGE [SEQ ID NO: 2017], for which the “antibody binding signal ranking” value in assay [1] was found to be 011. In addition, in assay [2], the “group II” value is listed as “X” and the “group III” value was “X”.
Turning to MVPQYGYCGVVTGK [SEQ ID NO: 2035], in assay [1], the “antibody binding signal ranking” value is recorded as 070. For the same sequence, in assay [2], the “group II” value was “X” and the “group III” value is on record as “X”.
Regarding “NEADAAALEHDKAY (REGION 1..14: note = peptide derived from viral capsid protein) [SEQ ID NO: 2004]”, the “antibody binding signal ranking” value in assay [1] is given as 163. In addition, in assay [2], the “group II” value is recorded as “X” and the “group III” value is “X”.
Regarding NLQAANLALGETTR [SEQ ID NO: 2020], the “antibody binding signal ranking” value in assay [1] was found to be 016. For the same sequence, in assay [2], the “group II” value is “X” and the “group III” value is recorded as “X”.
Regarding “NNFQFSYTFEDVPF (REGION 1..14: note = peptide derived from viral capsid protein) [SEQ ID NO: 1990]”, the “antibody binding signal ranking” value in assay [1] is listed as 003. For the same sequence, in assay [2], the “group I” value is recorded as “X”, the “group II” value was “X” and the “group III” value is “X”.
Take “NPVATEQYGSVSTN (REGION 1..14: note = peptide derived from viral capsid protein) [SEQ ID NO: 2005]”: the “antibody binding signal ranking” value in assay [1] came to 004. Also, in assay [2], the “group II” value was “X” and the “group III” value is on record as “X”.
In the case of NQTDRNAFYCLEYF [SEQ ID NO: 2036], the “antibody binding signal ranking” value in assay [1] is 072. Further, in assay [2], the “group II” value was “X” and the “group III” value is on record as “X”.
As to PEPADVFMIPQYGY [SEQ ID NO: 2029], the “antibody binding signal ranking” value in assay [1] came out at 029. Also, in assay [2], the “group II” value is listed as “X” and the “group III” value was “X”.
“PQILIKNTPVPANP (REGION 1..14: note = peptide derived from viral capsid protein) [SEQ ID NO: 2006]”: the “antibody binding signal ranking” value in assay [1] is reported as 006. Further, in assay [2], the “group II” value is listed as “X” and the “group III” value is reported as “X”.
With PVDQSPQEPDSSSG [SEQ ID NO: 1991], in assay [1], the “antibody binding signal ranking” value is on record as 005. For the same sequence, in assay [2], the “group I” value is recorded as “X”, the “group II” value is recorded as “X” and the “group III” value was “X”.
Turning to “PVPADPPTAFNKDK (REGION 1..14: note = peptide derived from viral capsid protein) [SEQ ID NO: 2018]”, the “antibody binding signal ranking” value in assay [1] is listed as 012. Besides, in assay [2], the “group II” value was “X” and the “group III” value is given as “X”.
With “PVPADPPTTFNQSK (REGION 1..14: note = peptide derived from viral capsid protein) [SEQ ID NO: 2027]”, in assay [1], the “antibody binding signal ranking” value was 047. In assay [2], the “group II” value is “X” and the “group III” value was “X”.
PVPANPPTTFSPAK [SEQ ID NO: 1992]: the “antibody binding signal ranking” value in assay [1] stood at 010. For the same sequence, in assay [2], the “group I” value is reported as “X”, the “group II” value is recorded as “X” and the “group III” value is on record as “X”.
As for PYLRYHADAEFQER [SEQ ID NO: 2013], the “antibody binding signal ranking” value in assay [1] turned out to be 118. Also, in assay [2], the “group II” value is reported as “X” and the “group III” value was “X”.
On to QIFADSSYELPYVM [SEQ ID NO: 2041], for which, in assay [1], the “antibody binding signal ranking” value is reported as 112. In addition, in assay [2], the “group II” value is “X” and the “group III” value was “X”.
For the sequence QQRLSKTANDNNNS [SEQ ID NO: 1993], the “antibody binding signal ranking” value in assay [1] was found to be 019. Besides, in assay [2], the “group I” value is listed as “X”, the “group II” value is given as “X” and the “group III” value is on record as “X”.
As to “QQRVSKTSADNNNS (REGION 1..14: note = peptide derived from viral capsid protein) [SEQ ID NO: 2007]”, in assay [1], the “antibody binding signal ranking” value is 015. Further, in assay [2], the “group II” value is listed as “X” and the “group III” value is reported as “X”.
On to “QSSNTAPTTRTVND (REGION 1..14: note = peptide derived from viral capsid protein) [SEQ ID NO: 1994]”, for which the “antibody binding signal ranking” value in assay [1] is recorded as 024. Besides, in assay [2], the “group I” value was “X”, the “group II” value is recorded as “X” and the “group III” value is “X”.
With “QTGDADSVPDPQPL (not fully specified) [SEQ ID NO: 2008]”, in assay [1], the “antibody binding signal ranking” value stood at 056. Further, in assay [2], the “group II” value is “X” and the “group III” value was “X”.
On to “QVKEVTTNDGVTTI (REGION 1..14: note = peptide derived from viral capsid protein) [SEQ ID NO: 2048]”, for which the “antibody binding signal ranking” value in assay [1] is 173. In addition, in assay [2], the “group II” value is on record as “X” and the “group III” value was “X”.
Regarding RDTDMFGQIADNNQ [SEQ ID NO: 2037], the “antibody binding signal ranking” value in assay [1] is given as 073. In assay [2], the “group II” value was “X” and the “group III” value is “X”.
For RDWQRLINNNWGLR [SEQ ID NO: 2038], the “antibody binding signal ranking” value in assay [1] is recorded as 082. In addition, in assay [2], the “group II” value is “X” and the “group III” value was “X”.
Turning to RVSKTKTDNNNSNF [SEQ ID NO: 2049], the “antibody binding signal ranking” value in assay [1] was determined as 178. Further, in assay [2], the “group II” value was “X” and the “group III” value was “X”.
SDSEYQLPYVLGSA [SEQ ID NO: 2050]: the “antibody binding signal ranking” value in assay [1] was 197. Further, in assay [2], the “group II” value is given as “X” and the “group III” value was “X”.

The record behind these values is patent publication US20250213707A1, “COMPOUND FOR INCREASING EFFICACY OF ONCOLYTIC VIRUSES” (ABLEVIA BIOTECH GMBH, priority 2022, published 2025).
